Read-outs that look alike come from different tables or passages of the source.
Key:
ACC1 [1] = conditions: ACC isolated from rat, mouse, monkey and human; cited from earlier work
ACC2 [2] = conditions: ACC isolated from rat, mouse, monkey and human; cited from earlier work
[3] = Pharmacokinetic evaluation of compounds in rats; format: in vivo; conditions: SD rats; for Kp / Vd / AUC(0-inf) / Cmax / Tmax / half-life / bioavailability: male, rat; for Kp: liver/plasma, liver collected 1 h, 3 h and 24 h after dosage, read-out: L/P liver-to-blood ratio; for Vd / AUC(0-inf) / Cmax / Tmax / half-life / bioavailability: plasma; for Vd: intravenous, 2 mg/kg, read-out: Vss; for bioavailability: read-out: F (%) bioavailability
Excerpt: This example was intended to investigate the pharmacokinetics of the compounds of the present invention and ND630 in SD rats under the conditions of intravenous (iv) and intragastric administration (po). Unless otherwise stated, the experimental reagents and instruments are all commercially available. ND630 was Gilead's acetyl CoA carboxylase (ACC) inhibitor, with a structural formula as follows: […]
Formulation of compound: by taking a physiological saline solution of 5% DMSO+5% Solutol HS 15+90% HP-β-CD (20% w/v) as a solvent, a compound with the final concentration of 0.4 mg/mL was formulated for intravenous administration and a compound with the final concentration of 1 mg/mL was formulated for orally intragastric administration.
Animal feeding and management: male SD rats aged 6-8 weeks and weighing between 180-250 g were selected and raised in transparent resin plastic rate cages. Before administration, the rats were fasted overnight for at least 16 hours, and the feed supply was restored 4 hours after administration.
For the intravenous injection administration group, the dose was 2 mg/kg, and 0.2 mL of blood samples was collected from the jugular vein 5 min, 15 min, 30 min, 1 h, 3 h, 5 h, and 8 h after dosage. For the orally intragastric administration group, the dose was 10 mg/kg, and 0.2 mL of blood samples was collected from the jugular vein 15 min, 30 min, 1 h, 3 h, 5 h, 8 h, 12 h, and 24 h after dosage; and liver tissues were collected 1 h, 3 hand 24 h after dosage.
After the blood were sampled, the plasma was quickly separated by centrifugation at 4000 rpm (10 minutes, 4° C.). After the liver tissues were sampled, a mixture of methanol:water (1:1, v/v) three times the volume of the liver tissues was added to prepare a homogenate. 50 μL of plasma or homogenate sample was drawn, and 200 μL of an internal standard (30 ng/mL terfenadine, and acetonitrile) was added for precipitation. Centrifuging was carried out at 4° C. and 15,400 g for 10 minutes, and a supernatant was taken for analysis.
The concentration of a target compound was detected by LC-MS/MS. According to the plasma concentration-time curve, pharmacokinetic parameters were calculated by using a non-compartmental model (NCA) of software WinNonlin 7.0. […] Table 4. Pharmacokinetic results

HepG2 cells = experiment: [2-14C]-acetate incorporation assay in HepG2 cells; format: cell-based; conditions: for IC50: Homo sapiens, HepG2 cells, read-out: IC50 [2-14C]-acetate binding assay
Protocol: [2-^14C]-Acetate Incorporation Assay in HepG2 Cells
DMEM (GIBCO, catalog number: 11965-092) was used as a complete culture medium for HepG2 cells (ATCC, catalog number: HB-8064). 10% fetal bovein serum (FBS, GIBCO, catalog number: 10099-141), penicillin (100 units/mL) and streptomycin (100 μg/mL) (Pen/Strep, GIBCO, catalog number: 15140-122) were added to a DMEM culture medium.
HepG2 cells were cultured in a 37° C. incubator holding 5% carbon dioxide, and passaged every 2-3 days.
The HepG2 cells were spread on a 24-well plate (Corning, catalog number: 3524) at a density of 2×10^5 cells-well, 500 μL per well, and cultured in a 37° C. incubator holding 5% carbon dioxide. On the fourth day of culture, 50 μL of a compound diluted at a gradient of 1:3 was added, with the final concentration of DMSO of 0.5% (v/v); and the cells were cultured for 1 hour in the incubator. 1 μCi [2-^14C]-sodium acetate (Perkin Elmer, catalog number: NEC085H001MC) was added to each well, and culture was conducted for another 5 hours. The culture medium in each well was transferred to a 15 mL centrifugal tube (BD, catalog number: 352096); 0.5 mL of 0.1 M NaOH was added; the cells were blown and washed repeatedly, and then transferred to new centrifugal tubes. Then, 1 mL of ethanol and 0.17 mL of 50% KOH solution were added to each centrifugal tube, which was then treated in a water bath at 90° C. for 1 hour. Next, the mixture was cooled to room temperature; 5 mL of petroleum ether was added to each centrifugal tube, which was turned upside down several times for mixing; the resulting mixture was centrifuged for 5 minutes (Eppendorf, Model: 5702, 1000 rpm); and an upper organic phase was discarded. 1 mL of concentrated hydrochloric acid was added to each centrifugal tube and centrifuged for 5 minutes, and 4 mL of petroleum ether was transferred into a glass tube (18×180 mm). The sample in the glass tube was dried at 64° C., and then dissolved and resuspended by addition of 400 μL of spotting solution (chloroform:n-hexane=1:1). 50 μL of the dissolved sample was drawn by a pipette (BIOHIT, Model: Proline Plus), and spotted onto an Isoplate-96-microwell plate (Perkin Elmer, catalog number: 6005040), and 200 μL of ULTIMA GOLD scintillation solution (Perkin Elmer, catalog number: 77-16061) was added, standing for 5 minutes. Finally, MicroBeta (PerkinElmer, Model: 2450) was used to read scintillation signals.
A 4-parameter logistic model or sigmoidal dose-response model in XLFit 5.3.1.3 (2006-2011 I D Business Solutions Limited) was used to fit IC50: fit=(A+((B−A)/(1+((C/x)^D)))); where the x-axis represented the log of compound concentration, and the y-axis represented count per minute (CPM).

ACC1 [4] = molecular target: ACC1 (Homo sapiens (Human), UniProt Q13085); experiment: In vitro ACC inhibition assay (ADP-Glo), ACC1; format: biochemical; conditions: for IC50: 0.5 nM ACC, 10 μM ATP, 5 μM acetyl-CoA, read-out: Enzymatic activity IC50 ACC1
Protocol: (§1) An exemplary procedure for the in vitro ACC inhibition assay, which can be used to determine the inhibitory action of the compounds of the invention toward either ACC1 or ACC2, is as follows. The ADP-Glo™ kinase assay kit from Promega was used. The ADP-Glo™ kinase assay is a luminescent ADP detection assay to measure enzymatic activity by quantifying the amount of ADP produced during an enzyme reaction. The assay was performed in two steps; first, after the enzyme reaction, an equal volume of ADP-Glo™ reagent was added to terminate the reaction and deplete the remaining ATP. Then, the kinase detection reagent was added to simultaneously convert ADP to ATP and allow the newly synthesized ATP to be measured using a luciferase/luciferin reaction. Luminescence can be correlated to ADP concentrations by using an ATP-to-ADP conversion curve. The detailed procedure was as follows. 4.5 μL of a working solution was added to a 384-well plate. The compound was diluted at 1:3 in succession in DMSO. 0.5 μL of diluted compound solution was added to a 384-well white Optiplate assay plate. The plates were incubated at room temperature for 15 minutes. 5 μL of substrate working solution was added to each well to initiate the reaction. A final ACC reaction solution consisted of: 0.5 nM ACC, 10 μM ATP, 5 μM acetyl-CoA, and 15 mM NaHCO3; and the final concentrations of the compound were measured as follows: 1 μM, 0.333 μM, 0.111 μM, 0.037 μM, 0.0123 μM, 0.00411 μM, 0.00137 μM, 0.000457 μM, 0.000152 μM, and 0.000051 μM. The plates were incubated at room temperature for 30 minutes. 10 μL of ADP-Glo™ reagent was added, and the plates were incubated at room temperature for 40 minutes. 20 μL of kinase detection reagent was added. The plates were incubated at room temperature for 40 minutes, then read on a Perkin Elmer EnVision 2104 plate reader for luminescence in relative light unit (RLU).
(§2) Data for each concentration, as well as the positive and negative controls were averaged, and the standard deviation was calculated. Percent inhibition was calculated by the formula: 100×(average negative control−compound)/(average negative control−average positive control). The IC50 for each compound was calculated by fitting the data with a non-linear regression equation: Y=Bottom+(Top−Bottom)/(1+10^((Log IC50−X)×HillSlope)), where X is the log of compound concentration and Y is the percent inhibition.

ACC2 [5] = molecular target: ACC2 (Homo sapiens (Human), UniProt O00763); experiment: In vitro ACC inhibition assay (ADP-Glo), ACC2; format: biochemical; conditions: for IC50: 0.5 nM ACC, 10 μM ATP, 5 μM acetyl-CoA, read-out: Enzymatic activity IC50 ACC2
Chain of ACC2 (Homo sapiens (Human), UniProt O00763) (O00763 whole entry, species assumed): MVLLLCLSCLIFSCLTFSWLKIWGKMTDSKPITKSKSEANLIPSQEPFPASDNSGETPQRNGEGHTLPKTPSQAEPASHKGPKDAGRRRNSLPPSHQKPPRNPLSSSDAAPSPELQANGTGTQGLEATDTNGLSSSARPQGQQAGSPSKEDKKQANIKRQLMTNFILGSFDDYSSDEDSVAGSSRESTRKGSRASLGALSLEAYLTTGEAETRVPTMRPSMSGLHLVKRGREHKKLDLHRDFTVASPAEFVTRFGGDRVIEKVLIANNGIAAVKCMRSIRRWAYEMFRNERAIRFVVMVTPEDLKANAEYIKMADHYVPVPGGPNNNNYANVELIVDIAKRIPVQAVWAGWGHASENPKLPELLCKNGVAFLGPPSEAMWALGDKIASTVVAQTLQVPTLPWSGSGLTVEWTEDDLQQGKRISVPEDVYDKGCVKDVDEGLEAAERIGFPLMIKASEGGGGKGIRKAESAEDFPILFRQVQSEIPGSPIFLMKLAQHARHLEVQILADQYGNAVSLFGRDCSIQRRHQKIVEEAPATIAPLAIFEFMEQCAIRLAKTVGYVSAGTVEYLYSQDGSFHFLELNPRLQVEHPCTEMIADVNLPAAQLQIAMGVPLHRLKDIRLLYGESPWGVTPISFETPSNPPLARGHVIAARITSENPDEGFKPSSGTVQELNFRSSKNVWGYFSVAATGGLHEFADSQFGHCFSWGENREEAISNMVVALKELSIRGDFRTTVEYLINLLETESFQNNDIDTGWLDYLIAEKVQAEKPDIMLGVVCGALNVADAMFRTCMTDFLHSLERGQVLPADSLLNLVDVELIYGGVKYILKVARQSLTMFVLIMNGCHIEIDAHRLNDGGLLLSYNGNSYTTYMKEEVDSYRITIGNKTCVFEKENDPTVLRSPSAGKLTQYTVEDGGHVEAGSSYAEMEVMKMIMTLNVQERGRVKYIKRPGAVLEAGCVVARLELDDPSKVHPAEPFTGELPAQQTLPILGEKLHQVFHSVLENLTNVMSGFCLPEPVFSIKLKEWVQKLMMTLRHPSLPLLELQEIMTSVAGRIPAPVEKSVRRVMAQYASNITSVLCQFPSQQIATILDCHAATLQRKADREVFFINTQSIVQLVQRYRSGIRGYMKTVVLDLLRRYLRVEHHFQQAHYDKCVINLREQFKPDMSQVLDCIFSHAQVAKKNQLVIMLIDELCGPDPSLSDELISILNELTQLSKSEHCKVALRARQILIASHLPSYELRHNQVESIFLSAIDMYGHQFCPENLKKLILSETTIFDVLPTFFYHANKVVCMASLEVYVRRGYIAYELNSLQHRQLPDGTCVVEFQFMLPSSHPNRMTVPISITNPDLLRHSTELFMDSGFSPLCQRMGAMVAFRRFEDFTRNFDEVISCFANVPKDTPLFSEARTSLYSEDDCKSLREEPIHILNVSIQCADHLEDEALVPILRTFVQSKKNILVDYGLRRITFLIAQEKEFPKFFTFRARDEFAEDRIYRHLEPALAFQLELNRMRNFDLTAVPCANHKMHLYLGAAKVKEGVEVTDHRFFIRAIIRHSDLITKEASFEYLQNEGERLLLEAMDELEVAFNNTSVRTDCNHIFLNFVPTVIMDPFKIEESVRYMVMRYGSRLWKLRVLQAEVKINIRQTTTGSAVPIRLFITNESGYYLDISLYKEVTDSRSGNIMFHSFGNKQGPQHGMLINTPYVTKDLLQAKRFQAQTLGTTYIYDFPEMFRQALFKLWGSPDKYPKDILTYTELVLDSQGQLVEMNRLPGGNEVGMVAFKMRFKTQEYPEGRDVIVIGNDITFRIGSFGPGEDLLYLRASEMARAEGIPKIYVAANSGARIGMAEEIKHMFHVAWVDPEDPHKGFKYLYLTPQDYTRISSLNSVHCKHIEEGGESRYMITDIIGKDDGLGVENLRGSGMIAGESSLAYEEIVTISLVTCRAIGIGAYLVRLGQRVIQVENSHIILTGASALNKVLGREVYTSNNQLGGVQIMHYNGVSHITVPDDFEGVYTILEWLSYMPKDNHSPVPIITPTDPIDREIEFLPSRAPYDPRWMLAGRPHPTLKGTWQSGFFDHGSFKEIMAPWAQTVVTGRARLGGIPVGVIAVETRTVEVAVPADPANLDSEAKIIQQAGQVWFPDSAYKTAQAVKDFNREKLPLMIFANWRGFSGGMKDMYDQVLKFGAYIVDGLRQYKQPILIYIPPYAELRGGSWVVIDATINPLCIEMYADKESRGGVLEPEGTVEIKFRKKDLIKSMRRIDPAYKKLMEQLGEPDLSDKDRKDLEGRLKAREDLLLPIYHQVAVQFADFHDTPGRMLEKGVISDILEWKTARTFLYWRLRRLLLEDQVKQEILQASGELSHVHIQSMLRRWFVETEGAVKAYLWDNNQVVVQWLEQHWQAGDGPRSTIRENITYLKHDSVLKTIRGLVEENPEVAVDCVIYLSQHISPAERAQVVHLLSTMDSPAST
Protocol: as §1, §2

[6] = iv 2 mg/kg, read-out: AUC0-∞ (iv)
[7] = iv 2 mg/kg, read-out: Cmax (iv)
[8] = iv 2 mg/kg, read-out: Tmax (iv)
[9] = iv 2 mg/kg, read-out: t1/2 (iv) (converted)
[10] = po 10 mg/kg, read-out: AUC0-∞ (po)
[11] = po 10 mg/kg, read-out: Cmax (po)
[12] = po 10 mg/kg, read-out: Tmax (po)
[13] = po 10 mg/kg, read-out: t1/2 (po) (converted)

Compound	IC50 (ACC1 [1]) [nM]	IC50 (ACC2 [2]) [nM]	Cl [3] [mL/min/kg]	Kp ([3]; po 10 mg/kg)	Vd [3] [L/kg]	AUC(0-inf) [3, 6] [ng·h/mL]	Cmax [3, 7] [ng/mL]	Tmax [3, 8] [min]	half-life [3, 9] [min]	AUC(0-inf) [3, 10] [ng·h/mL]	Cmax [3, 11] [ng/mL]	Tmax [3, 12] [min]	half-life [3, 13] [min]	bioavailability ([3]; po 10 mg/kg, iv 2 mg/kg) [%]	IC50 (HepG2 cells) [nM]	inhibitory properties against ACC1 (in words) (ACC1 [4])	IC50 (ACC1 [4]) [nM]	inhibitory properties against ACC2 (in words) (ACC2 [5])	IC50 (ACC2 [5]) [nM]	inhibitory properties against HepG2 cells (in words) (HepG2 cells)
O=C(c1c2ccccc2cc2ccccc12)N1CCC(N2CCC[C@@H](C(=O)N3CCOCC3)C2)CC1 [CP-640186]	~60	~60																		
COc1ccccc1[C@H](Cn1c(=O)n(C(C)(C)C(=O)O)c(=O)c2c(C)c(-c3ncco3)sc21)OC1CCOCC1 [ND630, reference compound]			12.2	5.5 to 41.9	0.48	2870	5630	4.98	63.6	5090	2880	24	39	35.8						
COc1ccccc1[C@H](Cn1c(=O)n(CC2CC(C(=O)O)C2)c(=O)c2c(C)c(-c3ncco3)sc21)OC1CCOCC1 (stereo partly drawn) [c-1, (R)-3-((1-(2-(2-methoxyphenyl)-2-((tetrahydro-2H-pyran-4-yl)oxy)ethyl)-5-methyl-6-(oxazol-2-yl)-2,4-dioxa-1,4-dihydrothieno[2,3-d]pyrimidine-3(2H)-yl)methyl)cyclobutane-1-carboxylic acid]															232					
COc1ccccc1[C@H](Cn1c(=O)n(C2CC(CC(=O)O)C2)c(=O)c2c(C)c(-c3ncco3)sc21)OC1CCOCC1 (stereo partly drawn) [c-3, (R)-2-(3-(1-(2-(2-methoxyphenyl)-2-((tetrahydro-2H-pyran-4-yl)oxy)ethyl)-5-methyl-6-(oxazol-2-yl)-2,4-dioxo-1,4-dihydrothieno[2,3-d]pyrimidine-3(2H)-yl)cyclobutyl)acetic acid]															18.5	good inhibitory properties	0.688	good inhibitory properties	3	good inhibitory properties
COc1ccccc1[C@H](Cn1c(=O)n([C@H]2C[C@H](CC(=O)O)C2)c(=O)c2c(C)c(-c3ncco3)sc21)OC1CCOCC1 [c-3-1, 2-((1R,3r)-3-(1-((R)-2-(2-methoxyphenyl)-2-((tetrahydro-2H-pyran-4-yl)oxy)ethyl)-5-methyl-6-(oxazol-2-yl)-2,4-dioxo-1,2-dihydrothieno[2,3-d]pyrimidine-3(4H)-yl)cyclobutyl)acetic acid]			10.7	9.46 to 17.3	0.826	3120	4100	5	104	15700	7780	30	279	99.6	13.1	good inhibitory properties	0.836	good inhibitory properties	9	good inhibitory properties
COc1ccccc1[C@H](Cn1c(=O)n([C@H]2C[C@@H](CC(=O)O)C2)c(=O)c2c(C)c(-c3ncco3)sc21)OC1CCOCC1 [c-3-2, 2-((1S,3s)-3-(1-((R)-2-(2-methoxyphenyl)-2-((tetrahydro-2H-pyran-4-yl)oxy)ethyl)-5-methyl-6-(oxazol-2-yl)-2,4-dioxo-1,2-dihydrothieno[2,3-d]pyrimidine-3(4H)-yl)cyclobutyl)acetic acid]			25.1	20.6 to 30	0.839	1390	3110	5	54	4350	3240	24	289	62.3	18	good inhibitory properties	1.12	good inhibitory properties	8	good inhibitory properties

Source: US12384798B2, “ACC inhibitor and use thereof” (NANJING RUIJIE PHARMA CO., LTD., priority 2019, dated 2025)
